This experiment concerns the target Receptor-interacting serine/threonine-protein kinase 2 (Homo sapiens) (UniProt O43353). Briefly: RIPK2-NOD2 association inhibitors, IC50 – cell-based, fluorescence, late-stage follow-up (AID 651962). Conditions: cell-based NOD2-RIPK2 interaction, fluorescence read-out.

Active and inactive are the calls of the source. No rule for the calls is given here. Some results are limits rather than exact numbers.

Chain of Receptor-interacting serine/threonine-protein kinase 2 (Homo sapiens) (O43353 whole entry, looked up): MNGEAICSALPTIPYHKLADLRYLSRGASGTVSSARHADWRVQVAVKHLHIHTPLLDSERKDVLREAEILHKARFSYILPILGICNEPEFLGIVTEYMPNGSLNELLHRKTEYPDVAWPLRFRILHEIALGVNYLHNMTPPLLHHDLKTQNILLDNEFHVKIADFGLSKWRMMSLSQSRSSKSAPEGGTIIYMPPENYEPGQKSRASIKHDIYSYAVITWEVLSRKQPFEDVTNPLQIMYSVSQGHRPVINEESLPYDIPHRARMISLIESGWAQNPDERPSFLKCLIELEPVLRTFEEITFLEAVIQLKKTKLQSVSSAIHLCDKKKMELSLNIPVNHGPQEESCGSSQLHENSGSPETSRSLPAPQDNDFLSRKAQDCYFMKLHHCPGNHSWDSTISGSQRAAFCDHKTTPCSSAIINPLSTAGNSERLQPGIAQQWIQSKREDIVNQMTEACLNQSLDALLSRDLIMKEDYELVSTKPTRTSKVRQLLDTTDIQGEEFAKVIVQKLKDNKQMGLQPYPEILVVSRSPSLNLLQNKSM

As usually defined, the IC50 is the concentration at which inhibition is half-maximal. Take `Cc1ccc(S(=O)(=O)N2CCCCCC2)cc1[N+](=O)[O-]`: the IC50 is > 49.8 µM (inactive).
`Cc1nc([N+](=O)[O-])c(Br)n1Cc1ccccc1`: the IC50 result is “inactive”.
`COc1ccc(C(C[N+](=O)[O-])n2nc(C)cc2C)cc1` (stereo unspecified): the IC50 is 3.81 µM.
`Cc1nc([N+](=O)[O-])c(Br)n1Cc1ccc(Cl)c(Cl)c1`: the IC50 entry is “inactive”.
As for `Cc1ncc([N+](=O)[O-])n1Cc1ccc(Cl)c(Cl)c1`, the IC50 was > 49.8 µM (inactive).
For the compound `O=[N+]([O-])c1cccc(S(=O)(=O)N2CCCCCC2)c1`, the IC50 is > 49.8 µM (inactive).
For `O=S(=O)(c1ccc(F)cc1)N1CCCCCC1`, the IC50 was > 49.8 µM (inactive).
As for `Cc1ccc(C(C[N+](=O)[O-])n2nc(C)cc2C)cc1` (stereo unspecified), the IC50 was 2.97 µM.
For the compound `O=[N+]([O-])c1cc(S(=O)(=O)N2CCCCCC2)ccc1F`, the concentration for half-maximal inhibition (IC50) was 8.04 µM.
As for `Cc1cc(S(=O)(=O)N2CCCCCC2)ccc1F`, the IC50 was > 49.8 µM (inactive).
Take `O=S(=O)(c1ccccc1)N1CCCCCC1`: the IC50 was > 49.8 µM (inactive).

Values taken from PubChem BioAssay AID651962 (The Scripps Research Institute Molecular Screening Center, 2012).
